Test results from patent publication US7914891B2, “Wipes including microencapsulated delivery vehicles and phase change materials” (Kimberly-Clark Worldwide, Inc., priority 2005, dated 2011).
Like-named read-outs stand apart in the source and are kept apart here.

How the values were obtained:
[1] = Heat generation after soaking in de-ionized water; format: physicochemical; conditions: in 7.0 grams de-ionized water; coated samples crushed after 0.5 to 2.0 hours
Protocol: To analyze the samples for heat generation, 0.80 grams of each sample of calcium chloride including a moisture protective layer was added to four separate vials each containing 7.0 grams of de-ionized water and 0.73 grams of the control sample was added to a fifth vial containing 7.0 grams of de-ionized water. Using a J type thermocouple (commercially available from Omega Engineering, Inc., Stamford, Conn.) and a data logger, the temperature of the samples was measured over a period of 180 seconds. The four vials containing the samples of microencapsulated heat delivery vehicle including a moisture protective layer were allowed to remain in the de-ionized water for 0.5 hours, 1.0 hour, 1.5 hours, and 2.0 hours, respectively, at which time the samples were activated by crushing the samples by hand using a metal rod. The temperature of the water in the four vials was measured for a period of 180 seconds after crushing the samples.

[2] = 35 wt % in mineral oil, added to 7.0 grams de-ionized water
Protocol: All five samples were then individually added to 7.0 grams de-ionized water and the resulting temperature rise was measured using a Barnant Scanning Thermocouple (available from Therm-X of California, Hayward, Calif.).
All four samples were then added to 7.0 grams de-ionized water and the resulting temperature rise was measured using a J type Thermocouple (available from Omega Engineering, Inc., Stamford, Conn.).

[3] = tested on: Methicillin-resistant Staphylococcus aureus; conditions: 22° C. compared to 50° C.; 0.005% active PHMB
Protocol: This Example utilized 1.5-milliliter tubes containing a 1-milliliter blend of phosphate-buffered saline (pH 7.2) and 5% (w/v) bovine serum albumin soil. The tubes were placed in electric heat blocks set for 22° C., 30° C., 40° C. and 50° C., respectively. The tubes remained in the electric heat blocks for approximately 10 minutes.
After 10 minutes, 0.005% (by weight) active polyhexamehtylene biguanide (PHMB) (commercially available as Cosmocil® CQ from Arch Biocides, Inc., United Kingdom) was added to two tubes at each temperature level. Duplicate tubes without PHMB at each temperature were also made.
The tubes were then vortexed and Methicillin-resistant Staphylococcus aureus (approximately 1×10^5 colony forming units (CFU)) was then added to each tube. All of the tubes were then placed back into the heat blocks at their respective temperatures.
Following a 10-minute contact time, 0.1 milliliters of each sample was transferred to 0.9 milliliters letheen broth to neutralize the PHMB activity. The letheen samples were then plated in duplicate on Tryptic Soy agar plates using a WASP2 spiral plater (commercially available from Don Whitley Scientific, Ltd., Yorkshire, United Kingdom). The plates were inverted and incubated at 37±2° C. for 48 hours.
After 48 hours, the plates were evaluated using a total plate count to determine the biocidal efficacy of each sample.

[Ca+2].[Cl-].[Cl-] [Example 11 control sample, calcium chloride]
heat generation after contact with water [1]: produced heat immediately upon being introduced into water but only for a short period of time

[Ca+2].[Cl-].[Cl-] [anhydrous calcium chloride, calcium chloride]
rate of heat generation ([2]; particle size 149-355 micrometers vs four other size ranges): generated heat at the highest rate

[Cl-].[Cl-].[Mg+2] [anhydrous magnesium chloride, magnesium chloride]
rate of heat generation ([2]; particle size less than 250 micrometers vs three other size ranges): generated heat at the highest rate

polyhexamethylene biguanide [PHMB]
LOG10 difference in efficacy [3]: greater than 1.4 LOG10
